In patent publication US10206907B2, “Compounds useful for the treatment of degenerative and inflammatory diseases” (GALAPAGOS NV, priority 2008, dated 2019):
pEC50, pIC50: −log10 of the molar value.

Tests used:
[1] = Caco2 permeability (bi-directional); assay type: in vitro ADME, human; details: human, pH 7.4; for Papp A→B at 1 h, 10 µM: Caco-2, apical to basolateral, read-out: Papp (A2B); for efflux ratio at 1 h, 10 µM: Caco-2, ratio of PappB>A/PappA>B
Procedure: Bi-directional Caco-2 assays were performed as described below.
2×10^5 cells/well were seeded in plating medium consisting of DMEM+GlutaMAXI+1% NEAA+10% FBS (FetalClone II)+1% Pen/Strep. The medium was changed every 2-3 days.
50 μM Lucifer Yellow (Sigma) was added to the donor buffer in all wells to assess integrity of the cell layers by monitoring Lucifer Yellow permeation. As Lucifer Yellow (LY) cannot freely permeate lipophilic barriers, a high degree of LY transport indicates poor integrity of the cell layer.
After a 1 hour incubation at 37° C. while shaking at an orbital shaker at 150 rpm, 70 μL aliquots were taken from both apical (A) and basal (B) chambers and added to 100 μL1 50:50 acetonitrile:water solution containing analytical internal standard (0.5 μM carbamazepine) in a 96 well plate.
Concentrations of compound in the samples were measured by high performance liquid-chromatography/mass spectroscopy (LC-MS/MS).
The Efflux ratios, as an indication of active efflux from the apical cell surface, were calculated using the ratio of PappB>A/PappA>B.
The following assay acceptance criteria were used:
Lucifer yellow permeability: ≤100 nm/s

[2] = target: Recombinant human JAK2 catalytic domain (Homo sapiens (Human), UniProt O60674); assay: JAK2 inhibition assay; assay type: biochemical; details: semi-quantitative score
Chain of Recombinant human JAK2 catalytic domain (O60674 808-1132): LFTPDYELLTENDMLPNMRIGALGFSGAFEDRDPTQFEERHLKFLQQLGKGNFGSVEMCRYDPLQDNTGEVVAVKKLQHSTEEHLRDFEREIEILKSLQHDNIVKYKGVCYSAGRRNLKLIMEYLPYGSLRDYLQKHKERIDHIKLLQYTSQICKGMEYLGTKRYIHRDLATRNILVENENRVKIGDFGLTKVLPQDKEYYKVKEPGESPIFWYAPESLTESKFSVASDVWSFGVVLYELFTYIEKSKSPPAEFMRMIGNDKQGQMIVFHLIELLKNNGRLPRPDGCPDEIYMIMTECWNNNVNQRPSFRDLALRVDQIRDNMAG
In short: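 Activity was taken as vehicle cpm minus cpm with 10 μM staurosporine, and inhibition was expressed on that scale. Incubation was 90 min at 30 °C, followed by acid quench, phosphoric acid washes and Microscint counting. Compounds were tested as dose series to obtain IC50.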

[3] = Microsomal stability, human liver microsomes; assay type: in vitro ADME; details: percentage of compound remaining after 60 minutes, 3 μM compound
In short: (§1)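 Percent parent remaining after 60 min was determined by LCMS against a time-zero sample quenched before microsome addition. Incubations ran at 37°C with liver microsomes and a G6PDH-based NADPH-regenerating cofactor mix. Quench was MeOH or ACN (1:1).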

MMP13 in SW1353 cells = assay: OSM/IL-1β signaling assay (MMP13 levels in SW1353 cells); assay type: cell-based; details: Homo sapiens; SW1353 cells, OSM and IL-1β triggered, MMP13 levels 48 hours after triggering; read-out: MMP13 EC50;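 also: secreted MMP13 captured by antibody, activated with APMA and its activity read by fluorescence, inhibition scaled between vehicle-treated triggered wells (0%) and untriggered wells (100%)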
Procedure: The cells were seeded in 96 well plates at 15,000 cells/well in a volume of 120 μL DMEM (Invitrogen) containing 10% (v/v) FBS and 1% penicillin/streptomycin (InVitrogen) incubated at 37° C. […] MMP13 activity was measured using an antibody capture activity assay. […] Next the wells were washed twice with PBS+0.05% Tween followed by MMP13 activation by addition of 35 μL of a 1.5 mM 4-Aminophenylmercuric acetate (APMA) (Sigma, A9563) solution and incubation at 37° C. for 1 hour. […] Percentage inhibition=((fluorescence determined in the presence of vehicle−fluorescence determined for sample with test compound present) divided by (fluorescence determined in the presence of vehicle−fluorescence determined for sample without trigger))*100%.

[4] = test system: JAK-STAT signalling in HeLa cells; assay: JAK-STAT signalling assay (OSM-triggered pSTAT1(2)-luciferase reporter in HeLa cells); assay type: cell-based; details: Homo sapiens; HeLa cells, OSM-triggered pSTAT1(2)-luciferase reporter; read-out: STAT signalling EC50
In short: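 Read-out is oncostatin M–driven pSTAT1(2)-luciferase activity, corrected by co-transfected LacZ β-galactosidase, in transiently transfected HeLa cells cultured overnight at 37 °C, 10% CO2. Inhibition percentages against positive and negative controls were plotted across doses to derive EC50.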

[5] = Microsomal stability, rat liver microsomes; assay type: in vitro ADME; details: percentage of compound remaining after 60 minutes, 3 μM compound
In short: as §1

[6] = target: Recombinant human JAK1 catalytic domain (Homo sapiens (Human), UniProt P23458); assay: JAK1 inhibition assay; assay type: biochemical; details: semi-quantitative score
Chain of Recombinant human JAK1 catalytic domain (P23458 850-1154): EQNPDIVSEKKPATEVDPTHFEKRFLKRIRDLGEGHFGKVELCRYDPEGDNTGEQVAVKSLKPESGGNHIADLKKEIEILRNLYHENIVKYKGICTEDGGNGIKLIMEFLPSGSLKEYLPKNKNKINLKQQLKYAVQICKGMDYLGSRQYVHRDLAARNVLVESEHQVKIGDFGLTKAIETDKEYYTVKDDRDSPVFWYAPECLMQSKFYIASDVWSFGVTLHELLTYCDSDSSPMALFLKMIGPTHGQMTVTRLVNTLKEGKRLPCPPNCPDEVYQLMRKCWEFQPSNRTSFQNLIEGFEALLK
In short: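 IC50 values come from dose-response series, with each point expressed as percent inhibition of cpm. Vehicle sets full activity and 10 μM staurosporine sets background. Incorporated radioactivity counted by scintillation after washing with 75 mM phosphoric acid.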

| Structure (SMILES) | Papp A→B at 1 h, 10 µM [1] [×10⁻⁶ cm/s] | efflux ratio at 1 h, 10 µM [1] | pIC50 [2] | Microsomal Stability Human (%) [3] | pEC50 (MMP13 in SW1353 cells) | pEC50 [4] | Microsomal Stability Rat (%) [5] | pIC50 [6] |
| --- | --- | --- | --- | --- | --- | --- | --- | --- |
| O=C(Nc1nc2cccc(-c3ccc(CNc4ncc(F)cc4F)cc3)n2n1)C1CC1 [Compound 257, Cyclopropanecarboxylic acid (5-{4-[(3,5-difluoro-pyridin-2-ylamino)-methyl]-phenyl}-[1,2,4]triazolo[1,5-a]pyridin-2-yl)-amide] | 24 | 1.1 | > 7.00 | – | – | – | – | – |
| O=C(Nc1nc2cccc(-c3ccc(C(=O)N4CCCC(C(F)(F)F)C4)cc3)n2n1)C1CC1 (stereo not drawn) [Compound 164, N-(5-(4-(3-(trifluoromethyl)piperidine-1-carbonyl)phenyl)-[1,2,4]triazol[1,5-a]pyridin-2-yl)cyclopropanecarboxamide] | 6.9 | 2.5 | – | ** (** 26-50) | < 6.00 | < 6.00 | ** (** 26-50) | > 7.00 |
| CC(=O)N(Cc1ccc(C#N)nc1)c1ccc(-c2cccc3nc(NC(=O)C4CC4)nn23)cc1 [Compound 297, Cyclopropanecarboxylic acid (5-{4-[acetyl-(6-cyano-pyridin-3-ylmethyl)-amino]-phenyl}-[1,2,4]triazolo[1,5-a]pyridin-2-yl)-amide] | 1.05 | 70.2 | > 7.00 | – | < 6.00 | < 6.00 | **** (**** 76-100) | > 7.00 |
| O=C(Nc1nc2cccc(-c3ccc(CNC4CCS(=O)(=O)C4)cc3)n2n1)C1CC1 (stereo not drawn) [Compound 304, Cyclopropanecarboxylic acid (5-{4-[(1,1-dioxo-tetrahydro-thiophen-3-ylamino)-methyl]-phenyl}-[1,2,4]triazolo[1,5-a]pyridin-2-yl)-amide] | 0.3 | 69.7 | > 7.00 | – | < 6.00 | < 6.00 | **** (**** 76-100) | > 7.00 |
| O=C(Nc1nc2cccc(-c3ccc4c(ccn4C(=O)CCc4ccccc4)c3)n2n1)C1CC1 [Compound 179, Cyclopropanecarboxylic Acid {5-[1-(3-phenyl-propionyl)-1H-indol-5-yl]-[1,2,4]triazolo[1,5-a]pyridin-2-yl}-amide] | 0.5 | 1 | – | * (* 0-25) | – | < 6.00 | * (* 0-25) | > 7.00 |
| O=C(NCCc1cnn(-c2ccccc2)c1)c1ccc(-c2cccc3nc(NC(=O)C4CC4)nn23)cc1 [Compound 106, 4-(2-(cyclopropanecarboxamido)-[1,2,4]triazolo[1,5-a]pyridin-5-yl)-N-(2-(1-phenyl-1H-pyrazol-4-yl)ethyl)benzamide] | 4.23 | 7.38 | – | * (* 0-25) | 6.30 to 9.00 | 6.30 to 7.00 | * (* 0-25) | > 7.00 |
| O=C(NCc1cccnc1)c1ccc(-c2cccc3nc(NC(=O)C4CC4)nn23)cc1 [Compound 42, 4-(2-(cyclopropanecarboxamido)-[1,2,4]triazolo[1,5-a]pyridin-5-yl)-N-(pyridin-3-ylmethyl)benzamide] | 0.45 | 68.8 | – | *** (*** 51-75) | – | – | **** (**** 76-100) | 6.30 to 7.00 |
| O=C(Nc1nc2cccc(-c3ccc(OCCOc4ccc(F)cc4)cc3)n2n1)C1CC1 [Compound 115, N-(5-(4-(2-(4-fluorophenoxy)ethoxy)phenyl)-[1,2,4]triazolo[1,5-a]pyridin-2-yl)cyclopropanecarboxamide] | – | – | 6.30 to 7.00 | *** (*** 51-75) | < 6.00 | < 6.00 | ** (** 26-50) | > 7.00 |
| N#CCc1ccc(OCc2ccc(-c3cccc4nc(NC(=O)C5CC5)nn34)cc2)cc1 [Compound 301, Cyclopropanecarboxylic acid {5-[4-(4-cyanomethyl-phenoxymethyl)-phenyl]-[1,2,4]triazolo[1,5-a]pyridin-2-yl}-amide] | 13.9 | 1.31 | > 7.00 | – | < 6.00 | 6.30 to 7.00 | * (* 0-25) | > 7.00 |
| O=C(Nc1nc2cccc(-c3ccc(C(=O)N4CCC(F)(F)CC4)cc3)n2n1)C1CC1 [Compound 168] | 11 | – | – | **** (**** 76-100) | < 6.00 | < 6.00 | *** (*** 51-75) | – |
| COc1ccc(NCc2ccc(-c3cccc4nc(NC(=O)C5CC5)nn34)cc2)cn1 [Compound 236, Cyclopropanecarboxylic acid (5-{4-[(6-methoxy-pyridin-3-ylamino)-methyl]-phenyl}-[1,2,4]triazolo[1,5-a]pyridin-2-yl)-amide] | – | – | > 7.00 | * (* 0-25) | 6.30 to 9.00 | 6.00 to 6.30 | * (* 0-25) | > 7.00 |
| COc1c(F)ccc(NCc2ccc(-c3cccc4nc(NC(=O)C5CC5)nn34)cc2)c1F [Compound 245, Cyclopropanecarboxylic acid (5-{4-[(2,4-difluoro-3-methoxy-phenylamino)-methyl]-phenyl}-[1,2,4]triazolo[1,5-a]pyridin-2-yl)-amide] | – | – | > 7.00 | * (* 0-25) | < 6.00 | 6.30 to 7.00 | * (* 0-25) | > 7.00 |
| O=C(Nc1nc2cccc(-c3ccc(CNc4ccccn4)cc3)n2n1)C1CC1 [Compound 244, Cyclopropanecarboxylic acid (5-[4-(pyridin-2-ylaminomethyl)-phenyl]-[1,2,4]triazolo[1,5-a]pyridin-2-yl}-amide] | – | – | > 7.00 | * (* 0-25) | 6.00 to 6.30 | 6.00 to 6.30 | * (* 0-25) | > 7.00 |
| O=C(Nc1nc2cccc(-c3ccc(CN4CCN(CC(F)(F)F)CC4)cc3)n2n1)C1CC1 [Compound 241, Cyclopropanecarboxylic acid (5-{4-[4-(2,2,2-trifluoro-ethyl)-piperazin-1-ylmethyl]-phenyl}-[1,2,4]triazolo[1,5-a]pyridin-2-yl)-amide] | – | – | 6.30 to 7.00 | *** (*** 51-75) | < 6.00 | 6.00 to 6.30 | **** (**** 76-100) | > 7.00 |
| O=C(Cc1ccccc1)Nc1ccc(-c2cccc3nc(NC(=O)C4CC4)nn23)cc1 [Compound 23, N-(5-(4-(2-phenylacetamido)phenyl)-[1,2,4]triazolo[1,5-a]pyridin-2-yl)cyclopropanecarboxamide] | – | – | 6.30 to 7.00 | * (* 0-25) | < 6.00 | < 6.00 | ** (** 26-50) | > 7.00 |
